Reference: PubChem BioAssay (NCI)
Where “and” joins values, the source holds several entries; their conditions need not be identical. Equal entries are not always repeated.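 Protocol summary: plate cells (96-well), add compound at 5 concentrations, incubate 48 h, interpolate endpoints linearly. GI50 is the concentration that inhibits growth by half. Definition used: TGI = concentration required for complete inhibition of growth.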

Key:
Assay in all cases: inhibition of tumour cell growth, NCI panel, 48 h
SW-620 colon = system: SW-620 colon
OVCAR-5 ovarian = system: OVCAR-5 ovarian
HCT-116 colon = system: HCT-116 colon
NCI-H23 lung = system: NCI-H23 lung
SF-295 CNS = system: SF-295 CNS
NCI-H226 lung = system: NCI-H226 lung
A498 renal = system: A498 renal
K-562 leukemia = system: K-562 leukemia
M19-MEL melanoma = system: M19-MEL melanoma
DMS 273 small cell lung = system: DMS 273 small cell lung

Structure (SMILES)	GI50 (SW-620 colon) [µM]	TGI (SW-620 colon) [µM]	GI50 (OVCAR-5 ovarian) [µM]	TGI (OVCAR-5 ovarian)	GI50 (HCT-116 colon) [µM]	TGI (HCT-116 colon)	GI50 (NCI-H23 lung) [µM]	TGI (NCI-H23 lung)	GI50 (SF-295 CNS) [µM]	TGI (SF-295 CNS)	GI50 (NCI-H226 lung) [µM]	TGI (NCI-H226 lung)	GI50 (A498 renal) [µM]	TGI (A498 renal)	GI50 (K-562 leukemia) [µM]	TGI (K-562 leukemia)	TGI (M19-MEL melanoma) [µM]	TGI (DMS 273 small cell lung) [µM]
ClCc1ccccc1Cn1cnc2nc(Cl)nc(Cl)c21	0.266	0.682	1.71	3.65 µM	0.115	0.236 µM	2.21	7.14 µM	9.28	32.3 µM	1.18	9.52 µM	2.13	4.83 µM	0.239	2.95 µM		
C[C@@H]1CC[C@@]2(C)OC(c3ccccc3)[C@H](CO)N2C1=O (some centres undefined)		> 100		> 100 µM		> 100 µM		> 100 µM		> 100 µM				> 100 µM		> 100 µM	> 100	> 100
COc1ccc(C)c2sc(N(Cc3cccnc3)C(=O)c3ccc(C#N)cc3)nc12	54.2	> 100	47.5	> 100 µM	29.2	> 100 µM	43.5	> 100 µM	51.8	> 100 µM	54.4	> 100 µM	2.21	95.5 µM	37.9	> 100 µM		
CC(C)N(C(=O)C12C3C4C5C3C1(C(=O)O)C5C42)C(C)C (centres undefined)		> 100		> 100 µM		> 100 µM		> 100 µM		> 100 µM				> 100 µM		> 100 µM	> 100	> 100
CCOC(=O)C1CC(=O)C=C2CCCCC21 (centres undefined)		> 100		> 100 µM		> 100 µM		> 100 µM		> 100 µM				> 100 µM		> 100 µM	> 100	> 100
CCCCCSc1ccc2nc(NC(=O)OCC)sc2c1	0.453	> 100	2.73	> 100 µM	0.466	> 100 µM	1.15	> 100 µM	0.394	10.6 µM	1.95	> 100 µM	1.22	7.88 µM	0.393	> 100 µM		
CCCN(CCC)c1ccc(/C=N/NC(=O)c2cccnc2)c(C)c1	14.8	35.7	13.1	33.8 µM	13.8	29.3 µM	14.4	32.1 µM	10.7	25.5 µM	12	26.3 µM	1.06	3.54 µM	10.5	54.6 µM		
Cc1ccc(-c2cc(C(=O)Nc3ccc(S(=O)(=O)N4CCCCC4)cc3)[nH]n2)c(O)c1	> 100	> 100	> 100	> 100 µM	> 100	> 100 µM	> 100	> 100 µM	> 100	> 100 µM	> 100	> 100 µM	> 100	> 100 µM	74.1	> 100 µM		
COc1ccc(OC)c(N2CC(O)=C(c3nc4ccccc4s3)C2=N)c1	32.7	> 100	> 100	> 100 µM	57.5	> 100 µM	> 100	> 100 µM	60.9	> 100 µM	56.9	> 100 µM	18.9	59.6 µM	23.6	> 100 µM		
O=C1OC2(c3ccc(O)cc3Oc3cc(O)ccc32)c2cccc3cccc1c23	16.5	42.7	17.2	40.7 µM	22.4	> 100 µM	20	49.9 µM	32.3	> 100 µM	16.1	52.1 µM	24.8	70.1 µM	33.2	> 100 µM		
CC(=O)O[C@@H]1c2c(c3c(=O)c4cccc(O)c4c(=O)c=3c2=[N+]=[N-])[C@H](OC(C)=O)[C@@H](OC(C)=O)[C@]1(C)O	0.216	1.22	0.613	1.23 µM and 1.35 µM	0.271	0.617 µM and 0.89 µM	0.411	1.77 µM and 1.59 µM	0.785	1.5 µM and 1.56 µM	0.617	1.45 µM and 2.18 µM	1.34	1.82 µM and 3.02 µM	0.0909	3.1 µM and 0.444 µM		
COc1cc2c(/C=C3\C(=O)N(C)c4ccccc43)c[nH]c2cc1C	1.68	> 100	7.94	> 63.9 µM	0.369	> 41.7 µM	5.33	> 67.9 µM	0.374	15.6 µM	20.3	> 58.1 µM	4.96	48.9 µM	1.68	> 100 µM		
COc1cc(OC)c(C(=O)/C=C/c2ccc(C#N)cc2)c(OC)c1	1.84	7.22	2.13	8.4 µM	1.07	3.82 µM	1.57	11.6 µM	1.72	8.81 µM	2.67	> 50 µM	1.33	3.95 µM	1.54	> 50 µM		
COc1cccc2c1C(=O)c1c(O)c3c(c(O)c1C2=O)C[C@](O)(C(=O)CO)C[C@H]3O[C@@H]1C[C@@H](NC(=O)CCCN(C)C2(c3ccc(F)cc3)CC3CCC2C3)[C@H](O)[C@@H](C)O1 (some centres undefined)	0.641	1.49	0.863	1.67 µM	0.742	1.47 µM	0.829	1.71 µM	0.805	1.6 µM	3.53	15.7 µM	5.31	12.5 µM	1.02	2.58 µM		
CCN1/C(=C/C(C)=C/c2sc3ccc4ccccc4c3[n+]2CC)Sc2ccc3ccccc3c21	0.114	0.277	0.486	1.93 µM	0.127	0.293 µM	0.108	1.19 µM	0.121	0.674 µM	0.225	1.27 µM	0.181	0.759 µM	1.03	18.4 µM		
